# From ChEMBL document CHEMBL2429780, “Synthesis, antimicrobial and cytotoxic activity of 2-azetidinone derivatives of pyridyl benzimidazoles” (Med Chem Res, 2013)
# Calls of active or inactive are those of the source. The rule behind the calls is not given here.
# Key:
# Aspergillus niger [1] = test: Antifungal activity against Aspergillus niger assessed as growth inhibition at 12.5 to 1000 ug/mL after 48 hrs by broth dilution assay; format: functional, organism-based
# Pseudomonas aeruginosa [2] = test: Antibacterial activity against Pseudomonas aeruginosa MTCC 1688 assessed as growth inhibition at 12.5 to 1000 ug/mL after 24 hrs by broth dilution assay; format: functional, organism-based
# Candida albicans [3] = test: Antifungal activity against Candida albicans assessed as growth inhibition at 12.5 to 1000 ug/mL after 48 hrs by broth dilution assay; format: functional, organism-based
# Staphylococcus aureus [4] = test: Antibacterial activity against Staphylococcus aureus MTCC 96 assessed as growth inhibition at 12.5 to 1000 ug/mL after 24 hrs by broth dilution assay; format: functional, organism-based
# Escherichia coli [5] = test: Antibacterial activity against Escherichia coli MTCC 443 assessed as growth inhibition at 12.5 to 1000 ug/mL after 24 hrs by broth dilution assay; format: functional, organism-based
# Streptococcus pyogenes [6] = test: Antibacterial activity against Streptococcus pyogenes MTCC 442 assessed as growth inhibition at 12.5 to 1000 ug/mL after 24 hrs by broth dilution assay; format: functional, organism-based
# Aspergillus clavatus [7] = test: Antifungal activity against Aspergillus clavatus assessed as growth inhibition at 12.5 to 1000 ug/mL after 48 hrs by broth dilution assay; format: functional, organism-based
# Aspergillus clavatus [8] = test: Antifungal activity against Aspergillus clavatus assessed as growth inhibition after 48 hrs by broth dilution assay; format: functional
# Streptococcus pyogenes [9] = test: Antibacterial activity against Streptococcus pyogenes MTCC 442 assessed as growth inhibition after 24 hrs by broth dilution assay; format: functional; settings: MTCC 442, 24 h
# Pseudomonas aeruginosa [10] = test: Antibacterial activity against Pseudomonas aeruginosa MTCC 1688 assessed as growth inhibition after 24 hrs by broth dilution assay; format: functional; settings: MTCC 1688, 24 h
# Aspergillus niger [11] = test: Antifungal activity against Aspergillus niger assessed as growth inhibition after 48 hrs by broth dilution assay; format: functional
# Staphylococcus aureus [12] = test: Antibacterial activity against Staphylococcus aureus MTCC 96 assessed as growth inhibition after 24 hrs by broth dilution assay; format: functional; settings: MTCC 96, 24 h
# Candida albicans [13] = test: Antifungal activity against Candida albicans assessed as growth inhibition after 48 hrs by broth dilution assay; format: functional
# Escherichia coli [14] = test: Antibacterial activity against Escherichia coli MTCC 443 assessed as growth inhibition after 24 hrs by broth dilution assay; format: functional; settings: MTCC 443, 24 h
# HeLa = test: Cytotoxicity against human HeLa cells assessed as growth inhibition after 24 to 72 hrs by MTT assay; format: cell-based
MIC (Aspergillus clavatus [8]) [µg/mL],MIC (Streptococcus pyogenes [9]) [µg/mL],MIC (Pseudomonas aeruginosa [10]) [µg/mL],MIC (Aspergillus niger [11]) [µg/mL],MIC (Staphylococcus aureus [12]) [µg/mL],MIC (Candida albicans [13]) [µg/mL],MIC (Escherichia coli [14]) [µg/mL],SMILES,growth inhibition (GI) (Aspergillus niger [1]),growth inhibition (GI) (Pseudomonas aeruginosa [2]),growth inhibition (GI) (Candida albicans [3]),growth inhibition (GI) (Staphylococcus aureus [4]),growth inhibition (GI) (Escherichia coli [5]),growth inhibition (GI) (Streptococcus pyogenes [6]),growth inhibition (GI) (Aspergillus clavatus [7]),IC50 (HeLa) [µM]
–,–,–,–,–,–,–,Cc1ccc(-c2cc(-c3nc4ccccc4[nH]3)nc(N)c2C#N)cc1,inactive,inactive,inactive,inactive,inactive,inactive,inactive,–
500,250,250,500,500,1000,100,COc1ccc(-c2cc(-c3nc4ccccc4[nH]3)nc(N3C(=O)C(Cl)C3c3ccccc3)c2C#N)cc1 (stereo not given),–,–,–,–,–,–,–,58.2
50,50,50,50,25,50,50,N#Cc1c(-c2cccc([N+](=O)[O-])c2)cc(-c2nc3ccccc3[nH]2)nc1N1C(=O)C(Cl)C1c1ccccc1 (stereo not given),–,–,–,–,–,–,–,> 100
≥ 1000,≥ 1000,≥ 1000,≥ 1000,≥ 1000,≥ 1000,–,N#Cc1c(-c2cccc(Cl)c2)cc(-c2nc3ccccc3[nH]2)nc1N,–,–,–,–,–,–,–,–
–,–,–,–,–,–,–,N#Cc1c(-c2cccc(O)c2)cc(-c2nc3ccccc3[nH]2)nc1N,inactive,inactive,inactive,inactive,inactive,inactive,inactive,–
500,500,500,250,250,500,250,N#Cc1c(-c2ccccc2)cc(-c2nc3ccccc3[nH]2)nc1N1C(=O)C(Cl)C1c1ccccc1 (stereo not given),–,–,–,–,–,–,–,81
–,–,–,–,–,–,–,N#Cc1c(-c2ccc(Cl)cc2O)cc(-c2nc3ccccc3[nH]2)nc1N,inactive,inactive,inactive,inactive,inactive,inactive,inactive,–
100,25,12.5,100,12.5,100,12.5,N#Cc1c(-c2ccc(Cl)cc2)cc(-c2nc3ccccc3[nH]2)nc1N1C(=O)C(Cl)C1c1ccccc1 (stereo not given),–,–,–,–,–,–,–,> 100
500,500,500,500,250,500,100,Cc1ccc(-c2cc(-c3nc4ccccc4[nH]3)nc(N3C(=O)C(Cl)C3c3ccccc3)c2C#N)cc1 (stereo not given),–,–,–,–,–,–,–,74.5
–,1000,1000,–,–,–,–,N#Cc1c(-c2cccc([N+](=O)[O-])c2)cc(-c2nc3ccccc3[nH]2)nc1/N=C/c1ccccc1,inactive,–,inactive,–,–,–,inactive,–
500,500,1000,1000,500,500,250,Cc1ccccc1-c1cc(-c2nc3ccccc3[nH]2)nc(N2C(=O)C(Cl)C2c2ccccc2)c1C#N (stereo not given),–,–,–,–,–,–,–,66
250,250,250,500,250,500,250,N#Cc1c(-c2ccc(O)cc2)cc(-c2nc3ccccc3[nH]2)nc1N1C(=O)C(Cl)C1c1ccccc1 (stereo not given),–,–,–,–,–,–,–,67.4
250,500,500,500,500,250,500,N#Cc1c(-c2cccc(O)c2)cc(-c2nc3ccccc3[nH]2)nc1N1C(=O)C(Cl)C1c1ccccc1 (stereo not given),–,–,–,–,–,–,–,86.5
–,–,–,–,–,–,–,N#Cc1c(-c2ccccc2Cl)cc(-c2nc3ccccc3[nH]2)nc1N,inactive,inactive,inactive,inactive,inactive,inactive,inactive,–
500,500,500,500,500,500,500,N#Cc1c(-c2ccccc2O)cc(-c2nc3ccccc3[nH]2)nc1N1C(=O)C(Cl)C1c1ccccc1 (stereo not given),–,–,–,–,–,–,–,78
–,–,–,–,–,–,–,N#Cc1c(-c2ccccc2O)cc(-c2nc3ccccc3[nH]2)nc1N,inactive,inactive,inactive,inactive,inactive,inactive,inactive,–

MIC (Aspergillus clavatus [8]) [µg/mL],MIC (Streptococcus pyogenes [9]) [µg/mL],MIC (Pseudomonas aeruginosa [10]) [µg/mL],MIC (Aspergillus niger [11]) [µg/mL],MIC (Staphylococcus aureus [12]) [µg/mL],MIC (Candida albicans [13]) [µg/mL],MIC (Escherichia coli [14]) [µg/mL],SMILES,growth inhibition (GI) (Aspergillus niger [1]),growth inhibition (GI) (Pseudomonas aeruginosa [2]),growth inhibition (GI) (Candida albicans [3]),growth inhibition (GI) (Staphylococcus aureus [4]),growth inhibition (GI) (Escherichia coli [5]),growth inhibition (GI) (Streptococcus pyogenes [6]),growth inhibition (GI) (Aspergillus clavatus [7]),IC50 (HeLa) [µM]
–,1000,1000,–,–,–,–,N#Cc1c(-c2ccc([N+](=O)[O-])cc2)cc(-c2nc3ccccc3[nH]2)nc1/N=C/c1ccccc1,–,–,–,–,–,–,–,–
–,–,–,–,–,–,–,N#Cc1c(-c2ccccc2)cc(-c2nc3ccccc3[nH]2)nc1N,inactive,inactive,inactive,inactive,inactive,inactive,inactive,–
500,250,500,250,250,500,500,Cc1cccc(-c2cc(-c3nc4ccccc4[nH]3)nc(N3C(=O)C(Cl)C3c3ccccc3)c2C#N)c1 (stereo not given),–,–,–,–,–,–,–,78.2
–,–,–,–,–,–,–,Cc1cccc(-c2cc(-c3nc4ccccc4[nH]3)nc(N)c2C#N)c1,inactive,inactive,inactive,inactive,inactive,inactive,inactive,–
–,≥ 1000,≥ 1000,–,≥ 1000,–,–,N#Cc1c(-c2ccc(Cl)cc2)cc(-c2nc3ccccc3[nH]2)nc1N,–,–,–,–,–,–,–,–
100,25,12.5,100,12.5,100,25,N#Cc1c(-c2ccc([N+](=O)[O-])cc2)cc(-c2nc3ccccc3[nH]2)nc1N1C(=O)C(Cl)C1c1ccccc1 (stereo not given),–,–,–,–,–,–,–,> 100
100,100,250,100,100,100,100,N#Cc1c(-c2ccccc2Cl)cc(-c2nc3ccccc3[nH]2)nc1N1C(=O)C(Cl)C1c1ccccc1 (stereo not given),–,–,–,–,–,–,–,> 100
50,50,25,25,25,50,50,N#Cc1c(-c2cccc(Cl)c2)cc(-c2nc3ccccc3[nH]2)nc1N1C(=O)C(Cl)C1c1ccccc1 (stereo not given),–,–,–,–,–,–,–,> 100
–,1000,1000,–,–,–,–,N#Cc1c(-c2ccc(Cl)cc2)cc(-c2nc3ccccc3[nH]2)nc1/N=C/c1ccccc1,–,–,–,–,–,–,–,–
≥ 1000,≥ 1000,≥ 1000,≥ 1000,≥ 1000,≥ 1000,–,N#Cc1c(-c2cccc([N+](=O)[O-])c2)cc(-c2nc3ccccc3[nH]2)nc1N,–,–,–,–,–,–,–,–
–,1000,1000,–,–,–,–,N#Cc1c(-c2ccccc2Cl)cc(-c2nc3ccccc3[nH]2)nc1/N=C/c1ccccc1,–,–,–,–,–,–,–,–
250,250,200,250,100,250,500,N#Cc1c(-c2ccc(Cl)cc2O)cc(-c2nc3ccccc3[nH]2)nc1N1C(=O)C(Cl)C1c1ccccc1 (stereo not given),–,–,–,–,–,–,–,91.5
250,500,500,500,500,500,250,COc1cccc(-c2cc(-c3nc4ccccc4[nH]3)nc(N3C(=O)C(Cl)C3c3ccccc3)c2C#N)c1 (stereo not given),–,–,–,–,–,–,–,64
–,≥ 1000,≥ 1000,–,≥ 1000,–,–,N#Cc1c(-c2ccc([N+](=O)[O-])cc2)cc(-c2nc3ccccc3[nH]2)nc1N,–,–,–,–,–,–,–,–
–,1000,1000,–,–,–,–,N#Cc1c(-c2cccc(Cl)c2)cc(-c2nc3ccccc3[nH]2)nc1/N=C/c1ccccc1,inactive,–,inactive,–,–,–,inactive,–

SMILES,MIC (Aspergillus clavatus [8]) [µg/mL],MIC (Streptococcus pyogenes [9]) [µg/mL],MIC (Pseudomonas aeruginosa [10]) [µg/mL],MIC (Aspergillus niger [11]) [µg/mL],MIC (Staphylococcus aureus [12]) [µg/mL],MIC (Candida albicans [13]) [µg/mL],MIC (Escherichia coli [14]) [µg/mL],growth inhibition (GI) (Aspergillus niger [1]),growth inhibition (GI) (Pseudomonas aeruginosa [2]),growth inhibition (GI) (Candida albicans [3]),growth inhibition (GI) (Staphylococcus aureus [4]),growth inhibition (GI) (Escherichia coli [5]),growth inhibition (GI) (Streptococcus pyogenes [6]),growth inhibition (GI) (Aspergillus clavatus [7]),IC50 (HeLa) [µM]
O=C(N[C@H](CO)[C@H](O)c1ccc([N+](=O)[O-])cc1)C(Cl)Cl [CHLORAMPHENICOL],–,50,50,–,50,–,50,–,–,–,–,–,–,–,–
CC(=O)N1CCN(c2ccc(OCC3COC(Cn4ccnc4)(c4ccc(Cl)cc4Cl)O3)cc2)CC1 (stereo not given) [KETOCONAZOLE],50,–,–,50,–,50,–,–,–,–,–,–,–,–,–
